Patent US10597388B2, “Pyridazinone herbicides” (FMC CORPORATION, priority 2014, dated 2020)
Read-outs that look alike come from different tables or passages of the source.

Key:
Type in all cases: in vivo
[1] = tested on: barnyardgrass (Echinochloa crus-galli); assay: Test A greenhouse herbicide test, pre- and postemergence; conditions: Echinochloa crus-galli, 240 h; for pest or weed control at 125 g/ha: 125 g ai/ha, 0 to 100 scale where 0 is no effect and 100 is complete control; for pest or weed control at 500 g/ha: 500 g ai/ha, 0 to 100 scale
Outline: (§1)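 Visual injury ratings, 0 (no effect) to 100 (complete control), versus untreated plants after roughly 10 d in a greenhouse. Compounds, formulated in a surfactant-containing non-phytotoxic solvent, were sprayed on loam–sand soil after sowing (pre) or on one- to two-leaf plants 2–10 cm tall (post).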

corn (Zea mays) = assay: as above; conditions: Zea mays, post-emergence, 240 h, Postemergence
Outline: as §1

[2] = tested on: foxtail, giant (giant foxtail, Setaria faberii); assay: as above; conditions: Setaria faberi, 240 h; for pest or weed control at 125 g/ha: 125 g ai/ha, 0 to 100 scale where 0 is no effect and 100 is complete control; for pest or weed control at 500 g/ha: 500 g ai/ha, 0 to 100 scale
Outline: as §1

kochia (Kochia scoparia) = assay: as above; conditions: Bassia scoparia, 240 h; for pest or weed control at 125 g/ha: 125 g ai/ha, 0 to 100 scale where 0 is no effect and 100 is complete control; for pest or weed control at 500 g/ha: 500 g ai/ha, 0 to 100 scale
Outline: as §1

[3] = tested on: pigweed (Amaranthus retroflexus); assay: as above; conditions: Amaranthus retroflexus, 240 h; for pest or weed control at 125 g/ha: 125 g ai/ha, 0 to 100 scale where 0 is no effect and 100 is complete control; for pest or weed control at 500 g/ha: 500 g ai/ha, 0 to 100 scale
Outline: as §1

[4] = tested on: ragweed (common ragweed, Ambrosia elatior); assay: as above; conditions: Ambrosia artemisiifolia, 240 h; for pest or weed control at 125 g/ha: 125 g ai/ha, 0 to 100 scale where 0 is no effect and 100 is complete control; for pest or weed control at 500 g/ha: 500 g ai/ha, 0 to 100 scale
Outline: as §1

[5] = tested on: ryegrass, Italian (Italian ryegrass, Lolium multiflorum); assay: as above; conditions: Lolium multiflorum, 240 h; for pest or weed control at 125 g/ha: 125 g ai/ha, 0 to 100 scale where 0 is no effect and 100 is complete control; for pest or weed control at 500 g/ha: 500 g ai/ha, 0 to 100 scale
Outline: as §1

[6] = tested on: wheat (Triticum aestivum); assay: as above; conditions: Triticum aestivum, post-emergence, 240 h, Postemergence
Outline: as §1

[7] = tested on: blackgrass (Alopecurus myosuroides); assay: Test A greenhouse herbicide test, postemergence; conditions: Alopecurus myosuroides, post-emergence, 240 h
Outline: (§2)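 Scores are visual injury ratings from 0 (no effect) to 100 (complete control) versus untreated plants, taken roughly 10 d after treatment in the greenhouse. Treatment was postemergence, on one- to two-leaf plants 2–10 cm high growing in a loam soil/sand mix.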

[8] = tested on: galium (catchweed bedstraw, Galium aparine); assay: Test A greenhouse herbicide test, postemergence; conditions: Galium, post-emergence, 240 h
Outline: as §2

`COc1nn(C)c(=O)c(-c2c(C)c(C)cc3ccccc23)c1O` [Compound 46, 4-(2,3-dimethyl-1-naphthalenyl)-5-hydroxy-6-methoxy-2-methyl-3(2H)-pyridazinone] showed a pest or weed control at 125 g/ha ([1]; post-emergence, Postemergence, read-out: Plant response rating, Barnyardgrass) of 20%, a pest or weed control at 500 g/ha ([1]; post-emergence, Postemergence, 0 is no effect, 100 is complete control, read-out: Barnyardgrass plant response rating) of 80% and a pest or weed control at 125 g/ha ([1]; pre-emergence, Preemergence, read-out: Barnyardgrass plant response rating) of 20%. The pest or weed control at 500 g/ha ([1]; pre-emergence, Preemergence, 0 no effect, 100 complete control, read-out: Plant response rating, Barnyardgrass) was 60%, the Corn plant response rating (crop injury, 0 = no effect, 100 = complete kill) at 125 g/ha (corn (Zea mays); 125 g ai/ha, 0 to 100 scale where 0 is no effect and 100 is complete control) was 0% and the plant injury at 500 g/ha (corn (Zea mays); 500 g ai/ha, 0 to 100 scale, 0 is no effect, 100 is complete control, read-out: Corn plant response rating) was 0%. The pest or weed control at 125 g/ha ([2]; post-emergence, Postemergence, read-out: Plant response rating, Foxtail, Giant) was 50%, the pest or weed control at 500 g/ha ([2]; post-emergence, Postemergence, 0 is no effect, 100 is complete control, read-out: Foxtail, Giant plant response rating) was 80% and the pest or weed control at 125 g/ha ([2]; pre-emergence, Preemergence, read-out: Foxtail, Giant plant response rating) was 50%. The pest or weed control at 500 g/ha ([2]; pre-emergence, Preemergence, 0 no effect, 100 complete control, read-out: Plant response rating, Foxtail, Giant) was 90%, the pest or weed control at 125 g/ha (kochia (Kochia scoparia); post-emergence, Postemergence, read-out: Plant response rating, Kochia) was 30% and the pest or weed control at 500 g/ha (kochia (Kochia scoparia); post-emergence, Postemergence, 0 is no effect, 100 is complete control, read-out: Kochia plant response rating) was 40%. For the same compound, the pest or weed control at 125 g/ha (kochia (Kochia scoparia); pre-emergence, Preemergence, read-out: Kochia plant response rating) was 30%, the pest or weed control at 500 g/ha (kochia (Kochia scoparia); pre-emergence, Preemergence, 0 no effect, 100 complete control, read-out: Plant response rating, Kochia) was 30% and the pest or weed control at 125 g/ha ([3]; post-emergence, Postemergence, read-out: Plant response rating, Pigweed) was 70%. For the same compound, the pest or weed control at 500 g/ha ([3]; post-emergence, Postemergence, 0 is no effect, 100 is complete control, read-out: Pigweed plant response rating) was 90%, the pest or weed control at 125 g/ha ([3]; pre-emergence, Preemergence, read-out: Pigweed plant response rating) was 30% and the pest or weed control at 500 g/ha ([3]; pre-emergence, Preemergence, 0 no effect, 100 complete control, read-out: Plant response rating, Pigweed) was 100%. The pest or weed control at 125 g/ha ([4]; post-emergence, Postemergence, read-out: Plant response rating, Ragweed) was 80%, the pest or weed control at 500 g/ha ([4]; post-emergence, Postemergence, 0 is no effect, 100 is complete control, read-out: Ragweed plant response rating) was 90% and the pest or weed control at 125 g/ha ([4]; pre-emergence, Preemergence, read-out: Ragweed plant response rating) was 50%. For the same compound, the pest or weed control at 500 g/ha ([4]; pre-emergence, Preemergence, 0 no effect, 100 complete control, read-out: Plant response rating, Ragweed) was 80%, the pest or weed control at 125 g/ha ([5]; post-emergence, Postemergence, read-out: Plant response rating, Ryegrass, Italian) was 30% and the pest or weed control at 500 g/ha ([5]; post-emergence, Postemergence, 0 is no effect, 100 is complete control, read-out: Ryegrass, Italian plant response rating) was 80%. The pest or weed control at 125 g/ha ([5]; pre-emergence, Preemergence, read-out: Ryegrass, Italian plant response rating) was 30%, the pest or weed control at 500 g/ha ([5]; pre-emergence, Preemergence, 0 no effect, 100 complete control, read-out: Plant response rating, Ryegrass, Italian) was 50% and the plant injury at 125 g/ha ([6]; 125 g ai/ha, 0 to 100 scale where 0 is no effect and 100 is complete control, read-out: Plant response rating, Wheat) was 0%. For the same compound, the plant injury at 500 g/ha ([6]; 500 g ai/ha, 0 to 100 scale, 0 is no effect, 100 is complete control, read-out: Wheat plant response rating) was 20%, the pest or weed control at 125 g/ha ([7]; 125 g ai/ha, 0 to 100 scale where 0 is no effect and 100 is complete control, read-out: Plant response rating, Blackgrass) was 20% and the pest or weed control at 500 g/ha ([7]; 500 g ai/ha, 0 to 100 scale, 0 is no effect, 100 is complete control, read-out: Blackgrass plant response rating) was 70%. The pest or weed control at 125 g/ha ([8]; 125 g ai/ha, 0 to 100 scale where 0 is no effect and 100 is complete control, read-out: Plant response rating, Galium) was 70% and the pest or weed control at 500 g/ha ([8]; 500 g ai/ha, 0 to 100 scale, 0 is no effect, 100 is complete control, read-out: Galium plant response rating) was 90%.
